Calls of active or inactive are those of the source. The rule behind the calls is not given here.
Biological target: N-formyl peptide receptor 2 (Homo sapiens) (UniProt P25090)
Experiment: FPR2 antagonism measured by calcium flux – cell-based, calcium response, secondary assay, SAR follow-up (AID 1061)
Settings: FPRL1-expressing cells, antagonist mode, at 100 µM, stronger effect = higher value

Sequence of N-formyl peptide receptor 2 (Homo sapiens) (P25090 whole entry, looked up): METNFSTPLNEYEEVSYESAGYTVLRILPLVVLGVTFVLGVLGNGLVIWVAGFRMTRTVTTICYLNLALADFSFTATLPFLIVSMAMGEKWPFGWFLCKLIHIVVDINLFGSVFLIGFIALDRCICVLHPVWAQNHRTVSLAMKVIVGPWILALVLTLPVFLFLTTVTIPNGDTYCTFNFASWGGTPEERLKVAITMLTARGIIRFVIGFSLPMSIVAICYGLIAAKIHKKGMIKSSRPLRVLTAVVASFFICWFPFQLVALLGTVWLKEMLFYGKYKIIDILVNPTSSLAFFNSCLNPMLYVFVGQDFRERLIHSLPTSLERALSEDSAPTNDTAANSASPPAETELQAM

Row | inhibition | Compound
1 | 79% | COc1ccc(-c2cn3cccnc3n2)cc1NC(=O)C1CC1
2 | 75% | COc1ccc(CC(=O)Nc2cc(-c3cn4cccnc4n3)ccc2OC)cc1
3 | 48% (inactive) | COc1ccc(-c2cc(C(F)(F)F)nc(N3CCN(Cc4ccccc4)CC3)n2)cc1OC
4 | 36% (inactive) | CCC(=O)Nc1cc(-c2cn3cccnc3n2)ccc1OC
5 | 93% | COc1ccc(-c2cn3cccnc3n2)cc1NC(=O)C(C)C
